Assay results: PMC3759162 (Cellular and molecular life sciences : CMLS, 2012)

How the values were obtained:
[1] = biological target: T1, NSBP-1 (D2096.8; nematode sterol-binding protein 1) (Caenorhabditis elegans, UniProt Q19007); assay: competition with […] [3H]cholesterol on GST fusion protein
T1 sequence (Q19007 1-316): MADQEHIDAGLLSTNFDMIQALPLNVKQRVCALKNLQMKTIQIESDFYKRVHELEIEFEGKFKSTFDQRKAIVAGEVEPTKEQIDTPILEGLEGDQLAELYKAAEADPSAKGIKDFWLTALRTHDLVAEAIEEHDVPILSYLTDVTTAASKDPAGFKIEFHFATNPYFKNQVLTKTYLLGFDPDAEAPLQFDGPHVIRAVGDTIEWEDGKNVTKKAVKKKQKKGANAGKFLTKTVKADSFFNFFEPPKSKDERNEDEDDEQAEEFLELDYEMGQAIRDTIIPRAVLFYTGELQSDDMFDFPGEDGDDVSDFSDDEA

[2] = biological target: T1, NSBP-1 (D2096.8; nematode sterol-binding protein 1)

Structure (SMILES): C[C@H](CCCC(C)(C)O)[C@H]1CC[C@H]2[C@@H]3CC=C4C[C@@H](O)CC[C@]4(C)[C@H]3CC[C@]12C [25-hydroxycholesterol]
- IC50 [1]: ~630 nM

Structure (SMILES): CC(C)CCC[C@@H](C)[C@H]1CC[C@H]2[C@@H]3CC=C4C[C@@H](O)CC[C@]4(C)[C@H]3CC[C@]12C [cholesterol]
- Kd [2]: 87.5 ± 27.7 nM
- IC50 [1]: 40 ± 5.6 nM
